Source: ChEMBL document CHEMBL1127588, “A structure-activity relationship study of benzylic modifications of 4-[1-(1-naphthyl)ethyl]-1H-imidazoles on alpha 1- and alpha 2-adrenergic receptors” (J Med Chem, 1994)

Key:
[1] = molecular target: T1, Adrenergic receptor alpha-1 (Homo sapiens, UniProt P35348+P25100+P35368); experiment: Tested for its inhibitory activity against alpha-1 adrenoceptor in guinea pig ileum; format: tissue-based, Cavia porcellus; details: target entry is the homologue from another species
T1 sequence (P35348 whole entry): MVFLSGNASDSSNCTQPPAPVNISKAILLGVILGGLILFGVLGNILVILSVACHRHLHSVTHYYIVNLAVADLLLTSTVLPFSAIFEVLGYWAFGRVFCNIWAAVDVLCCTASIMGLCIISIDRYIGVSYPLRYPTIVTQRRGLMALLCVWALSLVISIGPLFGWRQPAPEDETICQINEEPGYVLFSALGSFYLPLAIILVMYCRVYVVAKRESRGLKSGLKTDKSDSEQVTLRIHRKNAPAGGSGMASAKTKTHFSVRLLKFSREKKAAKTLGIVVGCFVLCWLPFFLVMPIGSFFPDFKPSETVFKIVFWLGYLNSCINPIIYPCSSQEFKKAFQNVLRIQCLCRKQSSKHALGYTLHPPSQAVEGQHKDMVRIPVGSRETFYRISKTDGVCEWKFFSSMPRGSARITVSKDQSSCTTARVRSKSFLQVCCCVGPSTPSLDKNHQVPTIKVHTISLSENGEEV
T1 sequence (P25100 whole entry): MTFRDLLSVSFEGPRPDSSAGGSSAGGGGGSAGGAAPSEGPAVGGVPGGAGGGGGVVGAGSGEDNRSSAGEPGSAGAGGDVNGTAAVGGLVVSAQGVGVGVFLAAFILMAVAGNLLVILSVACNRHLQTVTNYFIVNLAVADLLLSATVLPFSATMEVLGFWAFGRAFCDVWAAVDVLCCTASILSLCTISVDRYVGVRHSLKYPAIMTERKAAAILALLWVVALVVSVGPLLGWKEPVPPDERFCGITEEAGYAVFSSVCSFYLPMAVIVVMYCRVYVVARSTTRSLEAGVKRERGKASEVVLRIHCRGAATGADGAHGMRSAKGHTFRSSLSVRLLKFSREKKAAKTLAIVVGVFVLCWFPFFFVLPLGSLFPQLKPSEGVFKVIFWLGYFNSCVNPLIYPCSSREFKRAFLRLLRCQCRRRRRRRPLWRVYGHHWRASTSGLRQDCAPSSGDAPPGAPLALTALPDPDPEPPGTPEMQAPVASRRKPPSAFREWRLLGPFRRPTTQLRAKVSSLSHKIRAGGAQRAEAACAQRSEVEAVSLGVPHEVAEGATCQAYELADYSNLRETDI
T1 sequence (P35368 whole entry): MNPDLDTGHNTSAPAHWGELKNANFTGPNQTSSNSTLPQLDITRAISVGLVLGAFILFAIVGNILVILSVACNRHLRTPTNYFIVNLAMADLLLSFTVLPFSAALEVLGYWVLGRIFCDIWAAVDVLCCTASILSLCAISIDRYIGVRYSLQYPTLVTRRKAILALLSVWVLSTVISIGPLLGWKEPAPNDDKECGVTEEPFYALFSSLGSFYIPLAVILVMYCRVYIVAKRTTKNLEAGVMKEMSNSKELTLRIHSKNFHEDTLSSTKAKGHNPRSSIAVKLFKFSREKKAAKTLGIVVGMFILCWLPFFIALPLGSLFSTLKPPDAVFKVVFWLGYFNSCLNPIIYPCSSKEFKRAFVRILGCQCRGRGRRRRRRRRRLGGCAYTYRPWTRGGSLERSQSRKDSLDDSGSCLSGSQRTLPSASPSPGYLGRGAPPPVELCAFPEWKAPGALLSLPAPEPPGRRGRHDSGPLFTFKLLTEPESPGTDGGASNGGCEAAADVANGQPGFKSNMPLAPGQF

[2] = molecular target: T2, Adrenergic receptor alpha-2 (Homo sapiens, UniProt P08913+P18825+P18089); experiment: Tested for its inhibitory activity against alpha-2 adrenoceptor in guinea pig ileum; format: tissue-based, Cavia porcellus; details: target entry is the homologue from another species
T2 sequence (P08913 whole entry): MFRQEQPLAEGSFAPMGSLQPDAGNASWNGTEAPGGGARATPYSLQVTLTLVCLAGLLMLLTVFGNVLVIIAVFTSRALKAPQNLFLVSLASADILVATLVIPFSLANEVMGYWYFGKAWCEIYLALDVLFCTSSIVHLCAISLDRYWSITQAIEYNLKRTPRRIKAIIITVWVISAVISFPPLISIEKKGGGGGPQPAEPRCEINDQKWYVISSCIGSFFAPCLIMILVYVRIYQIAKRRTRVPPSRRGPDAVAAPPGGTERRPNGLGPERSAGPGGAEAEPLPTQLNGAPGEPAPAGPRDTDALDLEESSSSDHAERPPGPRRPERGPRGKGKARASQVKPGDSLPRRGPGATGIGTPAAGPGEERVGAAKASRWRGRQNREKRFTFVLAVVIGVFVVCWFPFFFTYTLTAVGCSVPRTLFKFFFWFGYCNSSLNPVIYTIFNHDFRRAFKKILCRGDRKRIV
T2 sequence (P18825 whole entry): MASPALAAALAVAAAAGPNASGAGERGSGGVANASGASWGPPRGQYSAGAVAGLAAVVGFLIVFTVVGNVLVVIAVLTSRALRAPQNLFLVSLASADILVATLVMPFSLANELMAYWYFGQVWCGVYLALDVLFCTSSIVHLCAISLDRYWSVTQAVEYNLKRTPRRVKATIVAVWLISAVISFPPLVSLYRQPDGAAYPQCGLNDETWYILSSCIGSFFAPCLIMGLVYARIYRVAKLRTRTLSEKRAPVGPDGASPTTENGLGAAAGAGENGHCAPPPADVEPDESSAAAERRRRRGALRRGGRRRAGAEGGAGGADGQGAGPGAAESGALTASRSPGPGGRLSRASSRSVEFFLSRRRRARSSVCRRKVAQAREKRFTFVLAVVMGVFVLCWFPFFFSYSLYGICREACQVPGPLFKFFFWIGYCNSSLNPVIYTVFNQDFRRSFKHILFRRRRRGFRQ
T2 sequence (P18089 whole entry): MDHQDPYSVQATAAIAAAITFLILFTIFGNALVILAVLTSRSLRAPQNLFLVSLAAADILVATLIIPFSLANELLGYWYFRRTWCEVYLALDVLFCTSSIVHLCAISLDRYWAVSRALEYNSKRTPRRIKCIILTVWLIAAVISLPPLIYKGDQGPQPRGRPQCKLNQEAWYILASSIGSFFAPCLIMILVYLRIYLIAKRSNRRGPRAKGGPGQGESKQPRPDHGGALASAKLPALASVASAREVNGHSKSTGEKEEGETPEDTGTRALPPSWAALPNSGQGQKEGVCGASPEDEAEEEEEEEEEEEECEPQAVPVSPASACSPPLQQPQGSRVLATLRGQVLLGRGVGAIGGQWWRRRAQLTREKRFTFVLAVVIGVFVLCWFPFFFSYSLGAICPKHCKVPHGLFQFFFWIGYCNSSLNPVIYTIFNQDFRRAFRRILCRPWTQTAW

[3] = Ratio between IC50 values of alpha 1 and alpha 2 receptors
[4] = molecular target: Adrenergic receptor alpha (Rattus norvegicus) (UniProt P15823+P23944+P43140+P22086+P19328+P22909); experiment: Ratio between EC50 values of alpha 1 and alpha 2 receptors; format: protein assay

Compound | EC50 [1] [nM] | EC50 [2] [nM] | Ratio [3] | Ratio [4]
Cc1cccc(C(C)c2c[nH]cn2)c1C (stereo unspecified) [MEDETOMIDINE] | 1165 | – | – | –
CC(c1c[nH]cn1)c1cccc2ccccc12 (stereo in doubt; S-(+)-2) | 8273 | 11 | – | –
CC(c1c[nH]cn1)c1cccc2ccccc12 (stereo in doubt; S-(-)-2) | 10814 | – | – | –
CC(c1c[nH]cn1)c1cccc2ccccc12 (stereo in doubt; 2) | 5793 | 9 | – | –
Cl.OC(c1c[nH]cn1)c1cccc2ccccc12 (stereo unspecified) | 12692 | 375 | 1.05 | 33.8
COC(c1c[nH]cn1)c1cccc2ccccc12.Cl (stereo unspecified) | – | 32992 | > 5.8 | –
Cl.c1ccc2c(Cc3c[nH]cn3)cccc2c1 | 2113 | 18 | 2.7 | 117
